We go through six molecules from patent US6756359B2, “C12 modified erythromycin macrolides and ketolides having antibacterial activity” (Chiron Corporation, priority 2001, dated 2004).

≈ marks a conversion by molar mass, not a printed value.

Common to all, as to test: Antibacterial activity in vitro, MIC by broth microdilution
A general note: Dilution methods test growth across graded concentrations, often in twofold steps.

One assay has as its system E. faecalis Enfa_29212. It is filed as cell-based. The conditions noted are these: Table 5, Strain ID D: E. faecalis Enfa_29212; unit assumed. The method, boiled down: (§1)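 Broth microdilution per NCCLS in cation-adjusted Mueller-Hinton broth (S. pneumoniae: plus 2-5% lysed horse blood, 5-10% CO2), inoculum 3×10^5–7×10^5 CFU/mL, 2-fold serial drug dilutions, 35° C. for 18-24 hours. MIC taken as lowest concentration preventing visible growth.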

A further assay concerns S. aureus Stau_29213. It is filed as cell-based. The conditions noted are these: Table 5, Strain ID A: S. aureus Stau_29213; unit assumed. A digest of the protocol:
as §1

Assay [1] deals with S. epidermidis Step_14990. It is filed as cell-based. The conditions noted are these: Table 5, Strain ID B: S. epidermidis Step_14990; unit assumed. A digest of the protocol:
as §1

The subject of assay [2] is S. epidermidis Step_f50654 Pen S. Format: cell-based. Conditions: Table 5, Strain ID C: S. epidermidis Step_f50654; unit assumed. The method, boiled down:
as §1

The subject of the next assay is S. pyogenes Stpy_8668. Format: cell-based. The conditions noted are these: Table 5, Strain ID E: S. pyogenes Stpy_8668. A digest of the protocol:
as §1

Assay [3] deals with S. pneumoniae Stpn_280-962 Pen S. It is filed as cell-based, Streptococcus pneumoniae. The conditions noted are these: Table 5, Strain ID H: S. pneumoniae Stpn_280-962. A digest of the protocol: as §1
In assay [4] the test system is S. pneumoniae Stpn_297-749 Pen R. Format: cell-based, Streptococcus pneumoniae. Conditions: Table 5, Strain ID G: S. pneumoniae Stpn_297-749. The method, boiled down: as §1
A further assay has as its system S. pneumoniae Stpn_49619. It is filed as cell-based, Streptococcus pneumoniae. Conditions: Table 5, Strain ID F: S. pneumoniae Stpn_49619. The method, boiled down: as §1
Assay [5] has as its system S. pneumoniae Stpn_Erm 6849. Format: cell-based, Streptococcus pneumoniae. The conditions noted are these: Table 5, Strain ID I: S. pneumoniae Stpn_Erm 6849. A digest of the protocol: as §1
In assay [6] the test system is S. pneumoniae Stpn_Erm S 4297. Format: cell-based, Streptococcus pneumoniae. Conditions: Table 5, Strain ID J: S. pneumoniae Stpn_Erm S 4297; unit assumed. A digest of the protocol: as §1
For assay [7], the system named is S. pneumoniae Stpn_Mef 5654. Format: cell-based, Streptococcus pneumoniae. The conditions noted are these: Table 5, Strain ID K: S. pneumoniae Stpn_Mef 5654; unit assumed. The method, boiled down:
as §1

The test system of assay [8] is S. pneumoniae Stpn_Mef S 3427. It is filed as cell-based, Streptococcus pneumoniae. The conditions noted are these: Table 5, Strain ID L: S. pneumoniae Stpn_Mef S 3427; unit assumed. The method, boiled down:
as §1

For a further assay, the system named is H. influenzae Hain_49247. It is filed as cell-based, Haemophilus influenzae. The conditions noted are these: Table 5, Strain ID M: H. influenzae Hain_49247; unit assumed. A digest of the protocol:
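Visible-growth inhibition defined the MIC, obtained by NCCLS broth microdilution at 35° C. over 18-24 hours with a final inoculum of 3×10^5–7×10^5 CFU/mL.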

On to `CC[C@H]1OC(=O)[C@H](C)C(=O)[C@H](C)[C@@H](OC2O[C@H](C)C[C@H](N(C)C)[C@H]2O)[C@@](C)(OC)C[C@@H](C)C(=O)[C@H](C)[C@H]2N(CCCCn3cnc(-c4ccc(F)nc4)c3)C(=O)O[C@]12CC` (stereo partly drawn) [Example 33, (3aS,4R,7R,9R,10R,11S,13R,15R,15aR)-3a,4-diethyl-1-{4-[4-(6-fluoropyridin-3-yl)-1H-imidazol-1-yl]butyl}-11-methoxy-7,9,11,13,15-pentamethyl-2,6,8,14-tetraoxotetradecahydro-2H-oxacyclotetradecino[4,3-d][1,3]oxazol-10-yl 3,4,6-trideoxy-3-(dimethylamino)-D-xylo-hexopyranoside], for which the MIC in the assay with E. faecalis Enfa_29212 was 0.1 µg/mL (≈ 0.118 µM); against S. aureus Stau_29213 it was 0.4 µg/mL (≈ 0.474 µM); in [1], 0.2 µg/mL (≈ 0.237 µM); in assay [2], 0.2 µg/mL (≈ 0.237 µM); in the assay on S. pyogenes Stpy_8668, “≦0.05”; in assay [3] it was “≦0.05”. Further, the MIC result in assay [4] was “≦0.05”; in the assay with S. pneumoniae Stpn_49619 (unit assumed), 3.13 µg/mL (≈ 3.71 µM); in [5], “≦0.05”; in [6] it was 0.4 µg/mL (≈ 0.474 µM); in assay [7] it was 0.1 µg/mL (≈ 0.118 µM); in assay [8] it was 0.4 µg/mL (≈ 0.474 µM). In the assay on H. influenzae Hain_49247, this molecule displayed an MIC of 0.1 µg/mL (≈ 0.118 µM).
With `CC[C@H]1OC(=O)[C@H](C)C(=O)[C@H](C)[C@@H](OC2O[C@H](C)C[C@H](N(C)C)[C@H]2O)[C@@](C)(OC)C[C@@H](C)C(=O)[C@H](C)[C@H]2N(CCCCc3ncc(-c4cccc(N)c4)s3)C(=O)O[C@]12CC` (stereo partly drawn) [Example 34, (3aS,4R,7R,9R,10R,11S,13R,15R,15aR)-1-{4-[5-(3-aminophenyl)-1,3-thiazol-2-yl]butyl}-3a,4-diethyl-11-methoxy-7,9,11,13,15-pentamethyl-2,6,8,14-tetraoxotetradecahydro-2H-oxacyclotetradecino[4,3-d][1,3]oxazol-10-yl 3,4,6-trideoxy-3-(dimethylamino)-D-xylo-hexopyranoside], the MIC in the assay with E. faecalis Enfa_29212 was 0.1 µg/mL (≈ 0.117 µM); against S. aureus Stau_29213 it was 0.4 µg/mL (≈ 0.467 µM); in assay [1], 0.2 µg/mL (≈ 0.233 µM); in assay [2], 0.2 µg/mL (≈ 0.233 µM); with S. pyogenes Stpy_8668 it was “≦0.05”; in [3], “≦0.05”. Moreover, the MIC result in assay [4] was “≦0.05”; in the assay with S. pneumoniae Stpn_49619 (unit assumed), 3.13 µg/mL (≈ 3.65 µM); in [5], “≦0.05”; in assay [6], 12.5 µg/mL (≈ 14.6 µM); in assay [7], 0.2 µg/mL (≈ 0.233 µM); in [8] it was 0.4 µg/mL (≈ 0.467 µM). In the assay on H. influenzae Hain_49247, this molecule returned an MIC of 0.1 µg/mL (≈ 0.117 µM).
As for `CC[C@H]1OC(=O)[C@H](C)C(=O)[C@H](C)[C@@H](OC2O[C@H](C)C[C@H](N(C)C)[C@H]2O)[C@@](C)(OC)C[C@@H](C)C(=O)[C@H](C)[C@H]2N(CCCOc3cccc(-c4cccnc4)c3)C(=O)O[C@]12CC` (stereo partly drawn) [Example 35, (3aS,4R,7R,9R,10R,11S,13R,15R,15aR)-3a,4-diethyl-11-methoxy-7,9,11,13,15-pentamethyl-2,6,8,14-tetraoxo-1-[3-(3-pyridin-3-ylphenoxy)propyl]-tetradecahydro-2H-oxacyclotetradecino[4,3-d][1,3]oxazol-10-yl 3,4,6-trideoxy-3-(dimethylamino)-D-xylo-hexopyranoside], the MIC against E. faecalis Enfa_29212 is 0.2 µg/mL (≈ 0.239 µM); in the assay on S. aureus Stau_29213, 0.78 µg/mL (≈ 0.931 µM); in assay [1], 0.78 µg/mL (≈ 0.931 µM); in assay [2], 0.78 µg/mL (≈ 0.931 µM); in the assay on S. pyogenes Stpy_8668 (unit assumed), 0.2 µg/mL (≈ 0.239 µM); in assay [3], “≦0.05”. Besides, the MIC entry in assay [4] is “≦0.05”; against S. pneumoniae Stpn_49619 (unit assumed), 6.25 µg/mL (≈ 7.46 µM); in assay [5] it was “≦0.05”; in [6], 3.13 µg/mL (≈ 3.73 µM); in [7] it was 0.78 µg/mL (≈ 0.931 µM); in assay [8], 0.78 µg/mL (≈ 0.931 µM). This molecule had an MIC against H. influenzae Hain_49247 of 0.2 µg/mL (≈ 0.239 µM).
In the case of `CC[C@H]1OC(=O)[C@H](C)C(=O)[C@H](C)[C@@H](OC2O[C@H](C)C[C@H](N(C)C)[C@H]2O)[C@@](C)(OC)C[C@@H](C)C(=O)[C@H](C)[C@H]2N(CCCOc3ccc(-c4cccnc4)cc3)C(=O)O[C@]12CC` (stereo partly drawn) [Example 36, (3aS,4R,7R,9R,10R,11S,13R,15R,15aR)-3a,4-diethyl-11-methoxy-7,9,11,13,15-pentamethyl-2,6,8,14-tetraoxo-1-[3-(4-pyridin-3-ylphenoxy)propyl]-tetradecahydro-2H-oxacyclotetradecino[4,3-d][1,3]oxazol-10-yl 3,4,6-trideoxy-3-(dimethylamino)-D-xylo-hexopyranoside], the MIC against E. faecalis Enfa_29212 was 0.78 µg/mL (≈ 0.931 µM); with S. aureus Stau_29213, 6.25 µg/mL (≈ 7.46 µM); in assay [1], 1.56 µg/mL (≈ 1.86 µM); in [2] it was 0.78 µg/mL (≈ 0.931 µM); with S. pyogenes Stpy_8668 (unit assumed), 0.4 µg/mL (≈ 0.477 µM); in assay [3] (unit assumed) it was 0.1 µg/mL (≈ 0.119 µM). For the same molecule, the MIC turned out to be 0.1 µg/mL (≈ 0.119 µM) in [4] (unit assumed); 25 µg/mL (≈ 29.8 µM) against S. pneumoniae Stpn_49619 (unit assumed); 0.1 µg/mL (≈ 0.119 µM) in assay [5] (unit assumed); 12.5 µg/mL (≈ 14.9 µM) in [6]; 12.5 µg/mL (≈ 14.9 µM) in assay [7]; 0.78 µg/mL (≈ 0.931 µM) in assay [8]. In the assay on H. influenzae Hain_49247, this molecule registered an MIC of 0.2 µg/mL (≈ 0.239 µM).
As for `CC[C@H]1OC(=O)[C@H](C)C(=O)[C@H](C)[C@@H](OC2O[C@H](C)C[C@H](N(C)C)[C@H]2O)[C@@](C)(OC)C[C@@H](C)C(=O)[C@H](C)[C@H]2N(CCCC(C)(C)n3cnc4ncccc43)C(=O)O[C@]12CC` (stereo partly drawn) [Example 37, (3aS,4R,7R,9R,10R,11S,13R,15R,15aR)-3a,4-diethyl-1-[4-(1H-imidazo[4,5-b]pyridin-1-yl)-4-methylpentyl]-11-methoxy-7,9,11,13,15-pentamethyl-2,6,8,14-tetraoxotetradecahydro-2H-oxacyclotetradecino[4,3-d][1,3]oxazol-10-yl 3,4,6-trideoxy-3-(dimethylamino)-D-xylo-hexopyranoside], the MIC is 0.1 µg/mL (≈ 0.121 µM) in the assay on E. faecalis Enfa_29212; 0.4 µg/mL (≈ 0.483 µM) against S. aureus Stau_29213; 0.2 µg/mL (≈ 0.242 µM) in assay [1]; 0.2 µg/mL (≈ 0.242 µM) in assay [2]; “≦0.05” with S. pyogenes Stpy_8668; “≦0.05” in assay [3]. Further, the MIC entry in assay [4] was “≦0.05”; in the assay on S. pneumoniae Stpn_49619 it was “≦0.05”; in assay [5] (unit assumed), 0.4 µg/mL (≈ 0.483 µM); in [6], 0.1 µg/mL (≈ 0.121 µM); in assay [7], 1.56 µg/mL (≈ 1.88 µM); in [8] it was 0.2 µg/mL (≈ 0.242 µM). For the same molecule, the MIC against H. influenzae Hain_49247 came to 6.25 µg/mL (≈ 7.55 µM).
`CC[C@H]1OC(=O)[C@H](C)C(=O)[C@H](C)[C@@H](OC2O[C@H](C)C[C@H](N(C)C)[C@H]2O)[C@@](C)(OC)C[C@@H](C)C(=O)[C@H](C)[C@H]2N(CCCC(C)(C)n3cnc4cccnc43)C(=O)O[C@]12CC` (stereo partly drawn) [Example 38, (3aS,4R,7R,9R,10R,11S,13R,15R,15aR)-3a,4-diethyl-1-[4-(3H-imidazol[4,5-b]pyridin-3-yl)-4-methylpentyl]-11-methoxy-7,9,11,13,15-pentamethyl-2,6,8,14-tetraoxotetradecahydro-2H-oxacyclotetradecino[4,3-d][1,3]oxazol-10-yl 3,4,6-trideoxy-3-(dimethylamino)-D-xylo-hexopyranoside]: the MIC is 0.1 µg/mL (≈ 0.121 µM) in the assay with E. faecalis Enfa_29212; 0.2 µg/mL (≈ 0.242 µM) against S. aureus Stau_29213; 0.2 µg/mL (≈ 0.242 µM) in [1]; 0.2 µg/mL (≈ 0.242 µM) in assay [2]; “≦0.05” against S. pyogenes Stpy_8668; “≦0.05” in assay [3]. Moreover, the MIC result is “≦0.05” in assay [4]; “≦0.05” against S. pneumoniae Stpn_49619; 0.4 µg/mL (≈ 0.483 µM) in assay [5] (unit assumed); 0.1 µg/mL (≈ 0.121 µM) in assay [6]; 0.78 µg/mL (≈ 0.942 µM) in [7]; 0.1 µg/mL (≈ 0.121 µM) in [8]. In addition, in the assay with H. influenzae Hain_49247, the MIC was 6.25 µg/mL (≈ 7.55 µM).
